Assay results as given in patent US20080306094A1 (priority 2005, published 2008).
Where two headings read alike, the source gives them in different places.

What was measured:
HUVEC = HUVEC assay, endothelial cell proliferation; format: cell-based; details: Homo sapiens
Calu-6 tumour xenograft = Calu-6 tumour xenograft in vivo solid tumour model; details: once-daily oral, 28 days

With `COc1cc2c(Oc3ccc4[nH]c(C)cc4c3F)ncnc2cc1OCCCN1CCCC1` [AZD2171, 4-(4-fluoro-2-methyl-1H-indol-5-yloxy)-6-methoxy-7-(3-(pyrrolidin-1-yl)propoxy)quinazoline] as the molecule, how does the IC50 (HUVEC; VEGF-stimulated, read-out: IC50, VEGF-stimulated endothelial cell proliferation) read?
Its IC50 is 0.4 ± 0.2 nM.

And the IC50 (HUVEC; basal, read-out: IC50, basal endothelial cell proliferation)?
Its IC50 is greater than 500 nM.

And the “inhibition of growth of Calu-6 tumour xenograft” value (“inhibition” below) (Calu-6 tumour xenograft; 1.5 mg/kg/day, P<0.01 one-tailed t test)?
The value was 49%.

What about the “inhibition” value (Calu-6 tumour xenograft; 3 mg/kg/day, P<0.0001 one-tailed t test) of the same molecule?
Its value is 69%.

And the “inhibition” value (Calu-6 tumour xenograft; 6 mg/kg/day, P<0.0001 one-tailed t test)?
Its value is 91%.
